The values below come from patent US20240374743A1, “BLETILLA STRIATA POLYSACCHARIDE IRON COMPLEX, PREPARATION METHOD THEREFOR AND USE THEREOF” (priority 2023, published 2024).

The assay has as its system mouse model of iron deficiency anemia. In words: Anti-iron deficiency anemia test in mice. It is filed as in vivo, ICR mice. As to the method: Experimental animals: 35 ICR mice, clean grade, body weight 20-25 g, female.
Establishment of a mouse model of iron deficiency anemia: All mice were kept in a stainless steel cage, in which wood dust was used as padding to prevent iron from other sources from affecting the experimental results. The mice were adaptively fed at room temperature (24±1° C.) and humidity 50% for 3 days and then randomly divided into 7 groups, with 5 mice in each group. Five mice fed with basal feed (Fe>100 mg kg^−1) were used as a blank control group, and the remaining 30 mice were given a low-iron diet (Fe: 10 mg·kg^−1, AIN93 standard) and randomly divided into a model group (Model), a positive drug (Niferex) group, a ferrous sulfate (FeSO4) group, and low-dose, medium-dose and high-dose groups of the Bletilla striata polysaccharide-iron (III) complex prepared in Example 4. After adaptive feeding, 0.1 mL of blood was taken from the cheeks of all mice, and the routine blood test data, serum iron three-term test data, and other data were determined by using a blood cell analyzer and used as normal values before modeling. Blood was drawn from the cheek of each mouse twice a week, but the blood was not collected. The mice in each group got free access to water. After three consecutive weeks of feeding, 0.2 mL of blood was collected from the cheeks of the mice in each group and then measured for various hematological indexes, and the body weight changes were recorded and plotted. […] Mice that failed in modeling were excluded and were not included in any drug group.
Method of administration: Mice were administered by gavage at 8 am every day for 28 consecutive days. During gavage, the mice in each group got free access to water and fed normal diet. The mice in the blank control group and the model control group were given the same volume of distilled water, the mice in the positive drug group were given a drug with an Fe content of 0.039 mg/kg, the mice in FeSO4 group were given a drug with an Fe content of 0.039 mg/kg, and the mice in the low-dose, medium-dose and high-dose groups of the Bletilla striata polysaccharide-iron (III) complex were given drugs with Fe contents of 0.0195 mg/kg, 0.039 mg/kg, and 0.078 mg/kg, respectively. Except the blank control group, the other six groups were given a low-iron feed. The body weight was weighed, recorded, and plotted once a week, and the animal state was observed.
Sample collection: After the last administration by gavage, the mice in each group got free access to water for 12 hours and sacrificed, whole blood was collected from the heart to determine various biochemical indexes, including hemoglobin content (Hb) in red blood cells, red blood cell count (RBC), hematocrit (HCT), mean corpuscular volume (MCV), mean corpuscular hemoglobin content (MCH), mean corpuscular hemoglobin concentration (MCHC), red blood cell volume distribution width (RDW), serum iron (SI) content, total iron binding capacity (TIBC), and erythropoietin (EPO). Liver and spleen tissues were taken, weighed, and recorded, and the organ index was calculated. The organ coefficient was calculated according to the following equation, and a histogram was plotted for analysis: […]

Where [1] appears, read: Fe 0.039 mg/kg (medium-dose group), gavage 28 days.
Where [2] appears, read: gavage 28 days, complex low-, medium- and high-dose groups, Niferex and FeSO4 Fe 0.039 mg/kg.

Under setting [1], ferrous sulfate [FeSO4] yielded an HCT of 0.29 ± 0.05, an MCH of 17.83 ± 0.63, an MCHC of 400.49 ± 16.03 and an MCV of 51.20 ± 2.07. Under setting [1], the RBC value is reported as 6.85 10^12/L and the RDW is on record as 25.56 ± 2.99. For the same substance, for the setting “Fe 0.039 mg/kg, gavage 28 days”, the “effect on EPO compared with model group” value is “no regulatory effect on EPO” and the “liver index compared with model group” value is given as “not strong”. The “body weight after 28 days of administration (comparison between groups)” value (Fe 0.039 mg/kg, gavage daily 28 days) is “extremely significantly different from that in the control group”. In addition, under setting [2], the “Hb value compared with control group” value is “not significantly different from that in the control group” and the “effect on total iron binding capacity (TIBC)” value is “best effect”.
